Results from US12344606B2, “Next-generation modulators of stimulator of interferon genes (STING)” (RYVU THERAPEUTICS S.A., priority 2019, dated 2025).

What was measured:
[1] = test system: NF-κB pathway in THP-1 dual cells; assay: THP-1 Dual reporter assay, NF-κB pathway (SEAP); format: cell-based; details: Homo sapiens, THP1-Dual; 18 h stimulation, absorbance; read-out: THP1 Dual EC50 (μM) NFkB
Experimental: (§1) Compounds of the present invention were tested for their activity using THP-1 dual cells (Invivogen, cat no. thpd-nfis) allowing for simultaneous study of NF-κB pathway and the interferon regulatory factor (IRF) pathway. THP-1 dual cells contain luciferase reporter gene under the control of an ISG54 (interferon-stimulated gene) minimal promoter in conjunction with five interferon-stimulated response elements and a secreted embryonic alkaline phosphatase reporter gene under the control an IFN (interferon)-β minimal promoter fused to five copies of the NF-κB consensus transcriptional response element with three copies of the c-Rel binding site. Following 18 h of stimulation with STING agonist, medium was collected and transferred onto fresh cell culture plate. To verify activity of the IRF pathway, luminescence activity was measured with standard laboratory plate reader immediately after addition 10 μl of the medium to 50 μl (or 40 μl) of luminescence reagent (Invivogen, cat. No. rep-qlc2). To verify activity of NF-κB pathway, 20 μl (or 10 μl) of the medium was mixed with 80 μl of a detection medium (Invivogen, cat. No. rep-qb2) and incubated for 2 hours (or 1 hour) at 37° C. in a humidified atmosphere containing 5% CO2. Next, absorbance at 630 nm (or 655 nm) was recorded using standard laboratory plate reader.

[2] = test system: interferon regulatory factor (IRF) pathway in THP-1 dual cells; assay: THP-1 Dual reporter assay, IRF pathway (luciferase); format: cell-based; details: Homo sapiens, THP1-Dual; 18 h stimulation, luminescence
Experimental: as §1

[3] = biological target: human STING (Homo sapiens, UniProt Q86WV6); assay: Fluorescence Thermal Shift assay (hSTING FTS binding assay); details: STING 0.1 mg/ml, 20 min preincubation, SyproOrange
Experimental: Compounds of the present invention were tested for binding to human STING in Fluorescence Thermal Shift assay. STING was preincubated with the compounds for 20 minutes in 50 mM Hepes, 150 mM NaCl, pH 7.5 in 16 μl volume, following by adding 4 μl of SyproOrange dye dilution (ThermoFisher, cat no. S-6651). Final STING concentration was 0.1 mg/ml. Thermal unfolding was performed in Real-Time PCR QuantStudio 6 Flex System (Applied Biosystems), from 25 to 99° C., with continuous ramp mode and ramp rate 0.033° C./s. The data were analyzed using Protein Thermal Shift Software (ThermoFisher).

human STING, sequence (Q86WV6 whole entry H232R): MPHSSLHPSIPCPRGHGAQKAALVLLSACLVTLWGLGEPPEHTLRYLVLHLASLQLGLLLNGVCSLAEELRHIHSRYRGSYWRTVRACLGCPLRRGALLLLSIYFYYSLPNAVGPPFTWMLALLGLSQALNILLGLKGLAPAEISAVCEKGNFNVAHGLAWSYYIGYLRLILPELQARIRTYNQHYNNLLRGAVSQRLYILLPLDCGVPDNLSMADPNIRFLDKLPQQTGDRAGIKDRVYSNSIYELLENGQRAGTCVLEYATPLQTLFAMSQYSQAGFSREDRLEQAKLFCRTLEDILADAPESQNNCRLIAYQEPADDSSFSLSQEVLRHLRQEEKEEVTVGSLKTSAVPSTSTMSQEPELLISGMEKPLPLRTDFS

EC50 [1] [µM]	EC50 [2] [µM]	hSTING FTS binding assay (ΔT C.°) [3]	SMILES
≥ 10	≥ 10	+ (ΔTm<10° C.)	Cc1cc(CN(Cc2cn(C)c3ccccc3c2=O)[C@H]2CCCN(c3cccnc3)C2)cc(C)n1 [Example 38, 3-({[(2,6-dimethylpyridin-4-yl)methyl][(3S)-1-(pyridine-3-yl)piperidin-3-yl]amino}methyl)-1-methyl-1,4-dihydroquinolin-4-one]
1 to 10	≤ 1	++ (ΔTm>10° C.)	Cn1cc(CN(Cc2ccncc2)[C@H]2CCCN(c3cccnc3)C2)c(=O)c2ccccc21 [Example 39, 1-methyl-3-({[(3S)-1-(pyridin-3-yl)piperidin-3-yl][(pyridin-4-yl)methyl]amino}methyl)-1,4-dihydroquinolin-4-one]
≤ 1	≤ 1	++ (ΔTm>10° C.)	Cc1ccc(N2CCC[C@H](N(Cc3ccnc(C)c3)Cc3cn(C4CC4)c4cc(Cl)c(F)cc4c3=O)C2)cn1 [Example 40, 7-chloro-1-cyclopropyl-6-fluoro-3-({[(3S)-1-(6-methylpyridin-3-yl)piperidin-3-yl][(2-methylpyridin-4-yl)methyl]amino}methyl)-1,4-dihydroquinolin-4-one]
≥ 10	≥ 10	+ (ΔTm<10° C.)	Cc1cc(CN(Cc2cn(C)c3ccccc3c2=O)[C@H]2CCCN(c3ccn(C)c(=O)c3)C2)ccn1 [Example 41, 1-methyl-3-({[(3S)-1-(1-methyl-2-oxo-1,2-dihydropyridin-4-yl)piperidin-3-yl][(2-methylpyridin-4-yl)methyl]amino}methyl)-1,4-dihydroquinolin-4-one]
≤ 1	≤ 1	++ (ΔTm>10° C.)	Cc1ccc(N2CCC[C@H](N(Cc3ccnc(C)c3)Cc3cn(C4CC4)c4nc(Cl)c(F)cc4c3=O)C2)cn1 [Example 42, 7-chloro-1-cyclopropyl-6-fluoro-3-({[(3S)-1-(6-methylpyridin-3-yl)piperidin-3-yl][(2-methylpyridin-4-yl)methyl]amino}methyl)-1,4-dihydro-1,8-naphthyridin-4-one]
≥ 10	≥ 10	++ (ΔTm>10° C.)	Cc1ccc(N2CCC[C@H](N(Cc3ccnc(C)c3)Cc3cn(C4CC4)c4[nH]c(=O)c(F)cc4c3=O)C2)cn1 [Example 43, 1-cyclopropyl-6-fluoro-7-hydroxy-3-({[(3S)-1-(6-methylpyridin-3-yl)piperidin-3-yl][(2-methylpyridin-4-yl)methyl]amino}methyl)-1,4-dihydro-1,8-naphthyridin-4-one]
≤ 1	≤ 1	++ (ΔTm>10° C.)	COc1nc2c(cc1F)c(=O)c(CN(Cc1ccnc(C)c1)[C@H]1CCCN(c3ccc(C)nc3)C1)cn2C1CC1 [Example 44, 1-cyclopropyl-6-fluoro-7-methoxy-3-({[(3S)-1-(6-methylpyridin-3-yl)piperidin-3-yl][(2-methylpyridin-4-yl)methyl]amino}methyl)-1,4-dihydro-1,8-naphthyridin-4-one]
≤ 1	≤ 1	++ (ΔTm>10° C.)	COc1cc2c(cc1F)c(=O)c(CN(Cc1ccnc(C)c1)[C@H]1CCCN(c3ccc(C)nc3)C1)cn2C1CC1 [Example 45, 1-cyclopropyl-6-fluoro-7-methoxy-3-({[(3S)-1-(6-methylpyridin-3-yl)piperidin-3-yl][(2-methylpyridin-4-yl)methyl]amino}methyl)-1,4-dihydroquinolin-4-one]
≤ 1	≤ 1	++ (ΔTm>10° C.)	Cc1ccc(N2CCC[C@H](N(Cc3ccnc(C)c3)Cc3cn(C4CC4)c4cc(N5CCN[C@H](C)C5)c(F)cc4c3=O)C2)cn1 [Example 46, 1-cyclopropyl-6-fluoro-7-[(3R)-3-methylpiperazin-1-yl]-3-({[(3S)-1-(6-methylpyridin-3-yl)piperidin-3-yl][(2-methylpyridin-4-yl)methyl]amino}methyl)-1,4-dihydroquinolin-4-one]
≤ 1	≤ 1	++ (ΔTm>10° C.)	Cc1ccc(N2CCC[C@H](N(Cc3ccnc(C)c3)Cc3cn(C4CC4)c4cc(N5CCNCC5)c(F)cc4c3=O)C2)cn1 [Example 47, 1-cyclopropyl-6-fluoro-3-({[(3S)-1-(6-methylpyridin-3-yl)piperidin-3-yl][(2-methylpyridin-4-yl)methyl]amino}methyl)-7-(piperazin-1-yl)-1,4-dihydroquinolin-4-one]
≤ 1	≤ 1	++ (ΔTm>10° C.)	Cc1ccc(N2CCC[C@H](N(Cc3ccnc(C)c3)Cc3cn(C4CC4)c4cc(N5CCN(CC(F)F)CC5)c(F)cc4c3=O)C2)cn1 [Example 48, 1-cyclopropyl-7-[4-(2,2-difluoroethyl)piperazin-1-yl]-6-fluoro-3-({[(3S)-1-(6-methylpyridin-3-yl)piperidin-3-yl][(2-methylpyridin-4-yl)methyl]amino}methyl)-1,4-dihydroquinolin-4-one]
≥ 10	≥ 10	+ (ΔTm<10° C.)	Cc1ccc(N2CCC[C@H](N(Cc3ccnc(C)c3)Cc3cn(C)c4cc(N5CCNCC5=O)ccc4c3=O)C2)cn1 [Example 49, 1-methyl-3-({[(3S)-1-(6-methylpyridin-3-yl)piperidin-3-yl][(2-methylpyridin-4-yl)methyl]amino}methyl)-7-(2-oxopiperazin-1-yl)-1,4-dihydroquinolin-4-one]
≤ 1	≤ 1	++ (ΔTm>10° C.)	Cc1ccc(N2CCC[C@H](N(Cc3ccnc(C)c3)Cc3cn(C4COC4)c4ccccc4c3=O)C2)cn1 [Example 50, 3-({[(3S)-1-(6-methylpyridin-3-yl)piperidin-3-yl][(2-methylpyridin-4-yl)methyl]amino}methyl)-1-(oxetan-3-yl)-1,4-dihydroquinolin-4-one]
≥ 10	≥ 10	++ (ΔTm>10° C.)	Cc1ccc(N2CCC[C@H](N(Cc3ccnc(C)c3)Cc3cn(CC(=O)O)c4ccccc4c3=O)C2)cn1 [Example 51, 2-[3-({[(3S)-1-(6-Methylpyridin-3-yl)piperidin-3-yl][(2-methylpyridin-4-yl)methyl]amino}methyl)-4-oxo-1,4-dihydroquinolin-1-yl]acetic acid]
≤ 1	≤ 1	++ (ΔTm>10° C.)	Cc1ccc(N2CCC[C@H](N(Cc3ccnc(C)c3)Cc3cn(C4CC4)c4cc(N5CCNC6(CC6)C5)c(F)cc4c3=O)C2)cn1 [Example 52, 1-cyclopropyl-7-{4,7-diazaspiro[2.5]octan-7-yl}-6-fluoro-3-({[(3S)-1-(6-methylpyridin-3-yl)piperidin-3-yl][(2-methylpyridin-4-yl)methyl]amino}methyl)-1,4-dihydroquinolin-4-one]
1 to 10	≥ 10	+ (ΔTm<10° C.)	Cc1cc(CN(Cc2cn(C)c3ccccc3c2=O)[C@H]2CCCN(c3nnc(C)o3)C2)ccn1 [Example 53, 1-methyl-3-({[(3S)-1-(5-methyl-1,3,4-oxadiazol-2-yl)piperidin-3-yl][(2-methylpyridin-4-yl)methyl]amino}methyl)-1,4-dihydroquinolin-4-one]
